Active and inactive are the calls of the source. No cut-off for these calls is given here.

This note sets out measurements from ChEMBL document CHEMBL4334526, “Synthesis of Peptoid-Based Class I-Selective Histone Deacetylase Inhibitors with Chemosensitizing Properties” (J Med Chem, 2019).

The target of test [1] is T1, Class 1 histone deacetylase (Homo sapiens, UniProt Q13547+O15379+Q92769+Q9BY41). The test can be described thus: Inhibition of class 1 HDAC in human Cal27CisR cells assessed as potentiation of cisplatin-induced apoptosis by measuring increase in accumulation at sub-G1 phase at […] preincubated for 48 hrs followed by cisplatin addition and measured after 24 hrs by propidium iodide staining based flow cytometry. The format is cell-based.
T1 sequence (O15379 whole entry, looked up): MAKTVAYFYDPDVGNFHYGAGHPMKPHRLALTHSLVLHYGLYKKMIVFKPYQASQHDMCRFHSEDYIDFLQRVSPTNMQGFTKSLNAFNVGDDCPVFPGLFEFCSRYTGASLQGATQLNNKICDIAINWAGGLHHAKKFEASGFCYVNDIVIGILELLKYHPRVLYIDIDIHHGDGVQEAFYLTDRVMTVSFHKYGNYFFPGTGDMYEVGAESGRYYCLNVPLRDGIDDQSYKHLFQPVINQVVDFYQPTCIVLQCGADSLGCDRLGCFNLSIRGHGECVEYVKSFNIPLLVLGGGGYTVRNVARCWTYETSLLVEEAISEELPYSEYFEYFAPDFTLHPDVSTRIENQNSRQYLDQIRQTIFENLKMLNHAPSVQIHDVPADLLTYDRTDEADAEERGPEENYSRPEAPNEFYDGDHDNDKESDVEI
T1 sequence (Q13547 whole entry, looked up): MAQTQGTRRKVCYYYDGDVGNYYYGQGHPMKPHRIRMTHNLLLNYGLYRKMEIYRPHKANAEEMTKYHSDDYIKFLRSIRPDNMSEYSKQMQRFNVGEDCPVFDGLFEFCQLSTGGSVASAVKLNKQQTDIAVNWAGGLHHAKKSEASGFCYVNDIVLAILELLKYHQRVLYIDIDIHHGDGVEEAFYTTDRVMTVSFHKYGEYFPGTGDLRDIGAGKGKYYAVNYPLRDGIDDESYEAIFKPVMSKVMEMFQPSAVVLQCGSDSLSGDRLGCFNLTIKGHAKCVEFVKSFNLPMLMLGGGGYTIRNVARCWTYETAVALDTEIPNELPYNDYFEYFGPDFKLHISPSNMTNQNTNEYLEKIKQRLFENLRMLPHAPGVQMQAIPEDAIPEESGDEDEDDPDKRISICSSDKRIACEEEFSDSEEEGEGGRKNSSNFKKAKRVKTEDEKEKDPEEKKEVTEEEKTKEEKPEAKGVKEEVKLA
T1 sequence (Q92769 whole entry, looked up): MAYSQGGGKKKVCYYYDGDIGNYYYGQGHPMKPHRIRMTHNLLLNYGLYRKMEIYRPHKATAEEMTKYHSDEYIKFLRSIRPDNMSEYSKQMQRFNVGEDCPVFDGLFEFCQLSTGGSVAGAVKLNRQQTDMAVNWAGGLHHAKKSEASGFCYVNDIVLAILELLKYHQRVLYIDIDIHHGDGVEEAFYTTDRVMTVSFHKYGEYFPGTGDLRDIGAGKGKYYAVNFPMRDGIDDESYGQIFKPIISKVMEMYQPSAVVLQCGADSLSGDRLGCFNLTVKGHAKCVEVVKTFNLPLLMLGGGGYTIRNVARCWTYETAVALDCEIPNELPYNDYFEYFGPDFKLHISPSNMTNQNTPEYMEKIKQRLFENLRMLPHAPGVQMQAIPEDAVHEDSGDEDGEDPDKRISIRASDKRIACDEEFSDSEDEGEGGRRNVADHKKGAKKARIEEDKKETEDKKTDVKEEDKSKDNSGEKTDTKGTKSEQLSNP
T1 sequence (Q9BY41 whole entry, looked up): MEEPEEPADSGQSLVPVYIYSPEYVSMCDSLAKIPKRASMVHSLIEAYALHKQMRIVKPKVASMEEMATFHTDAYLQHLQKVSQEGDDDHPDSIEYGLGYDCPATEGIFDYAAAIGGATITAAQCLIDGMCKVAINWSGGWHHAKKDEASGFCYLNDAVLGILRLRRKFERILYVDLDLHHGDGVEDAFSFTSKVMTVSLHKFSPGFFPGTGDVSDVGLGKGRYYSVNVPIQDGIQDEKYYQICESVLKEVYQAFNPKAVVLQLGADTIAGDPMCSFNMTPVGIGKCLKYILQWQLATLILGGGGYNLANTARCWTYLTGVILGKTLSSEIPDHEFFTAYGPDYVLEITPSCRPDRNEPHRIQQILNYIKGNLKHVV

In another test the test system is CAL-27. The test can be described thus: Induction of apoptosis in human CAL27 cells assessed as caspase-3/7 activation at […] measured after 48 hrs by CellEvent caspase 3/7 green detection reagent/Hoechst 33342 staining based imaging analysis relative to control. Format: functional.
Test [2] has as its target T1, Class 1 histone deacetylase. The test can be described thus: Inhibition of class 1 HDAC in human CAL27 cells assessed as increase in histone H3 acetylation at […] measured after 24 hrs by immunoblot analysis. Format: cell-based. To be noted: CAL-27. In general terms: In western blotting, separated proteins are transferred to a membrane and probed.
For test [3] the target is unchanged. The test can be described thus: Inhibition of class 1 HDAC in human CAL27 cells assessed as potentiation of cisplatin-induced apoptosis assessed as increase in caspase-3/7 activation at […] preincubated for 48 hrs followed by cisplatin addition and measured after 24 hrs by CellEvent caspase 3/7 green detection reagent/Hoechst 33342 staining based imaging analysis. To be noted: CAL-27. Format: cell-based.

Test [4] has the same target. The test can be described thus: Inhibition of class 1 HDAC in human CAL27 cells assessed as potentiation of cisplatin-induced apoptosis assessed as increase in caspase-3/7 activation at […] preincubated for 48 hrs followed by cisplatin addition and measured after 24 hrs in presence of pan caspase inhibitor QVD by CellEvent caspase 3/7 green detection reagent/Hoechst 33342 staining based imaging analysis. Particulars: CAL-27. The format is cell-based.

The nature of test [5]: Induction of apoptosis in human Cal27CisR cells assessed as accumulation at sub-G1 phase at 100 uM measured after 48 hrs by propidium iodide staining based flow cytometry relative to control. Format: functional. On the technique in general: In flow cytometry, cells or beads pass a laser one at a time.
The target of test [6] is T1, Class 1 histone deacetylase. The format is cell-based. To be noted: cal-27.
Test [7] shares this target. Particulars: CAL-27.
Description: Inhibition of class 1 HDAC in human CAL27 cells assessed as potentiation of cisplatin-induced cytotoxicity by measuring combination index at 0.1 uM in presence of 0.1 uM cisplatin by MTT assay based Chou-Talalay analysis
Test [8] has the same target. Particulars: CAL-27. The source holds these as a separate data set.
Description: Inhibition of class 1 HDAC in human CAL27 cells assessed as potentiation of cisplatin-induced cytotoxicity by measuring combination index at 0.25 uM in presence of 3.2 uM cisplatin by MTT assay based Chou-Talalay analysis
Test [9] shares this target. To be noted: CAL-27. This is another data set of the same source.
Description: Inhibition of class 1 HDAC in human CAL27 cells assessed as potentiation of cisplatin-induced cytotoxicity by measuring combination index at 0.25 uM in presence of 10 uM cisplatin by MTT assay based Chou-Talalay analysis
The target is the same in test [10].
Description: Inhibition of class 1 HDAC in human Cal27CisR cells assessed as potentiation of cisplatin-induced cytotoxicity by measuring combination index at 0.10 uM in presence of 3.2 uM cisplatin by MTT assay based Chou-Talalay analysis
Test [11] shares this target. The test can be described thus: Inhibition of class 1 HDAC in human CAL27 cells assessed as potentiation of cisplatin-induced cytotoxicity by measuring cisplatin IC50 at 5 uM preincubated for 48 hrs followed by cisplatin addition and measured after 72 hrs by MTT assay (reference value: 9.79 uM). The format is cell-based. Particulars: cal-27.
The target is the same in test [12]. The test can be described thus: Inhibition of class 1 HDAC in human CAL27 cells assessed as potentiation of cisplatin-induced cytotoxicity by measuring combination index at 5 uM in presence of […] cisplatin by MTT assay based Chou-Talalay analysis. The format is cell-based. To be noted: CAL-27.
Test [13] has the same target. The test can be described thus: Inhibition of class 1 HDAC in human CAL27 cells assessed as increase in histone H3 acetylation at 5 uM measured after 24 hrs by immunoblot analysis. Particulars: CAL-27. The format is cell-based.
Test [14] shares this target. The test can be described thus: Inhibition of class 1 HDAC in human Cal27CisR cells assessed as potentiation of cisplatin-induced apoptosis assessed as increase in caspase-3/7 activation at 5 uM preincubated for 48 hrs followed by cisplatin addition and measured after 24 hrs by CellEvent caspase 3/7 green detection reagent/Hoechst 33342 staining based imaging analysis. Format: cell-based.

Consider `Cc1cc(C)cc(C(=O)N(CC(=O)NCc2ccccc2)Cc2ccc(C(=O)Nc3cc(-c4ccccc4)ccc3N)cc2)c1`, for which the inhibition entry in test [1], in test [2] and in test [3] was “Active” each time. Further, in the test on CAL-27, the Activity was found to be 9.47%. In test [4], the inhibition result is “inactive”.
Take `CN(C)c1ccc(C(=O)N(CC(=O)NCc2ccccc2)Cc2ccc(C(=O)Nc3ccccc3N)cc2)cc1`: the Activity in test [5] turned out to be 32.1%. Moreover, the IC50 – broadly, the point on the concentration scale where inhibition reaches its midpoint – in [6] worked out at 1.26 µM. For the same compound, the CI in [7] is under 0.2; in test [8], 0.07; in test [9], 0.02; in [10], under 0.2.
As to `Cc1cc(C)cc(C(=O)N(CCCCCC(=O)Nc2cc(-c3ccccc3)ccc2N)CC(=O)NCc2ccccc2)c1`, in [11], the IC50 was found to be 1.86 µM. For the same compound, the CI in [12] was determined as 0.1. The inhibition result in [13] and in [14] was “Active” each time.
